Drawing on ChEMBL document CHEMBL1136614, “Hydroporphyrins as tumour photosensitizers: synthesis and photophysical studies of 2,3-dihydro-5,15-di(3,5-dihydroxyphenyl) porphyrin” (2003), this text covers LD90, Survival and Inhibition for one molecule.

A short description of assay [1]: Dose required to induce 90% death rate for C6 glioma cells from rats. The assay is classed as functional, Rattus norvegicus.
The subject of the next assay is C6. Kind of assay: Survival rates when cells were incubated for 5 hr without light. The assay is classed as functional, Rattus norvegicus.
The next assay concerns HT-29. Kind of assay: Compound was tested for in vivo photo-sensitizing activity on human colon adenocarcinoma cell (HT-29). The assay is classed as functional.

Take `Oc1cc(O)cc(-c2c3nc(cc4ccc([nH]4)c(-c4cc(O)cc(O)c4)c4ccc(cc5nc2CC5)[nH]4)C=C3)c1`: in assay [1], the LD90 was 4.8 µg/mL. In addition, the Survival with C6 stood at 100%. Further, the Inhibition in the assay on HT-29 is given as 40%.

What is called Inhibition is how much of the control response was suppressed.
